Converted amounts (≈) assume the structure as drawn.
How the values were obtained:
LOX IMVI = assay: Growth inhibition of human LOX IMVI cells at 10 uM relative to control; type: functional; conditions: read-out: GI
MDA-MB-468 = assay: Growth inhibition of human MDA-MB-468 cells at 10 uM relative to control; type: functional; conditions: read-out: GI
T47D = assay: Growth inhibition of human T47D cells at 10 uM relative to control; type: functional; conditions: read-out: GI
CCRF-CEM = assay: Growth inhibition of human CCRF-CEM cells at 10 uM relative to control; type: functional; conditions: read-out: GI
HL-60(TB) = assay: Growth inhibition of human HL-60(TB) cells at 10 uM relative to control; type: functional; conditions: read-out: GI
K562 = assay: Growth inhibition of human K562 cells at 10 uM relative to control; type: functional; conditions: read-out: GI
MOLT-4 = assay: Growth inhibition of human MOLT-4 cells at 10 uM relative to control; type: functional; conditions: read-out: GI
RPMI-8226 = assay: Growth inhibition of human RPMI-8226 cells at 10 uM relative to control; type: functional; conditions: read-out: GI
SR = assay: Growth inhibition of human SR cells at 10 uM relative to control; type: functional; conditions: read-out: GI
A549 = assay: Growth inhibition of human A549 cells at 10 uM relative to control; type: functional; conditions: read-out: GI
HOP-62 = assay: Growth inhibition of human HOP-62 cells at 10 uM relative to control; type: functional; conditions: read-out: GI
HOP-92 = assay: Growth inhibition of human HOP-92 cells at 10 uM relative to control; type: functional; conditions: read-out: GI
NCI-H226 = assay: Growth inhibition of human NCI-H226 cells at 10 uM relative to control; type: functional; conditions: read-out: GI
NCI-H23 = assay: Growth inhibition of human NCI-H23 cells at 10 uM relative to control; type: functional; conditions: read-out: GI
NCI-H322M = assay: Growth inhibition of human NCI-H322M cells at 10 uM relative to control; type: functional; conditions: read-out: GI
NCI-H460 = assay: Growth inhibition of human NCI-H460 cells at 10 uM relative to control; type: functional; conditions: read-out: GI
NCI-H522 = assay: Growth inhibition of human NCI-H522 cells at 10 uM relative to control; type: functional; conditions: read-out: GI
SW-620 = assay: Growth inhibition of human SW-620 cells at 10 uM relative to control; type: functional; conditions: read-out: GI
COLO 205 = assay: Growth inhibition of human COLO 205 cells at 10 uM relative to control; type: functional; conditions: read-out: GI
HCC 2998 = assay: Growth inhibition of human HCC 2998 cells at 10 uM relative to control; type: functional; conditions: read-out: GI
HCT-116 = assay: Growth inhibition of human HCT-116 cells at 10 uM relative to control; type: functional; conditions: read-out: GI
HCT-15 = assay: Growth inhibition of human HCT-15 cells at 10 uM relative to control; type: functional; conditions: read-out: GI
HT-29 = assay: Growth inhibition of human HT-29 cells at 10 uM relative to control; type: functional; conditions: read-out: GI
KM12 = assay: Growth inhibition of human KM12 cells at 10 uM relative to control; type: functional; conditions: read-out: GI
SF-268 = assay: Growth inhibition of human SF-268 cells at 10 uM relative to control; type: functional; conditions: read-out: GI
SF-295 = assay: Growth inhibition of human SF-295 cells at 10 uM relative to control; type: functional; conditions: read-out: GI
SF-539 = assay: Growth inhibition of human SF-539 cells at 10 uM relative to control; type: functional; conditions: read-out: GI
SNB-19 = assay: Growth inhibition of human SNB-19 cells at 10 uM relative to control; type: functional; conditions: read-out: GI
SNB-75 = assay: Growth inhibition of human SNB-75 cells at 10 uM relative to control; type: functional; conditions: read-out: GI
U-251 = assay: Growth inhibition of human U-251 cells at 10 uM relative to control; type: functional; conditions: read-out: GI
Malme-3M = assay: Growth inhibition of human Malme-3M cells at 10 uM relative to control; type: functional; conditions: read-out: GI
M14 = assay: Growth inhibition of human M14 cells at 10 uM relative to control; type: functional; conditions: read-out: GI
MDA-MB-435 = assay: Growth inhibition of human MDA-MB-435 cells at 10 uM relative to control; type: functional; conditions: read-out: GI
SK-MEL-2 = assay: Growth inhibition of human SK-MEL-2 cells at 10 uM relative to control; type: functional; conditions: read-out: GI
SK-MEL-28 = assay: Growth inhibition of human SK-MEL-28 cells at 10 uM relative to control; type: functional; conditions: read-out: GI
SK-MEL-5 = assay: Growth inhibition of human SK-MEL-5 cells at 10 uM relative to control; type: functional; conditions: read-out: GI
UACC-257 = assay: Growth inhibition of human UACC-257 cells at 10 uM relative to control; type: functional; conditions: read-out: GI
UACC-62 = assay: Growth inhibition of human UACC-62 cells at 10 uM relative to control; type: functional; conditions: read-out: GI
IGROV-1 = assay: Growth inhibition of human IGROV-1 cells at 10 uM relative to control; type: functional; conditions: read-out: GI
OVCAR-4 = assay: Growth inhibition of human OVCAR-4 cells at 10 uM relative to control; type: functional; conditions: read-out: GI
OVCAR-5 = assay: Growth inhibition of human OVCAR-5 cells at 10 uM relative to control; type: functional; conditions: read-out: GI
OVCAR-8 = assay: Growth inhibition of human OVCAR-8 cells at 10 uM relative to control; type: functional; conditions: read-out: GI
NCI/ADR-RES = assay: Growth inhibition of human NCI/ADR-RES cells at 10 uM relative to control; type: functional; conditions: read-out: GI
SK-OV-3 = assay: Growth inhibition of human SK-OV-3 cells at 10 uM relative to control; type: functional; conditions: read-out: GI
786-0 = assay: Growth inhibition of human 786-0 cells at 10 uM relative to control; type: functional; conditions: read-out: GI
A498 = assay: Growth inhibition of human A498 cells at 10 uM relative to control; type: functional; conditions: read-out: GI
ACHN = assay: Growth inhibition of human ACHN cells at 10 uM relative to control; type: functional; conditions: read-out: GI
CAKI-1 = assay: Growth inhibition of human CAKI-1 cells at 10 uM relative to control; type: functional; conditions: read-out: GI
RXF 393 = assay: Growth inhibition of human RXF 393 cells at 10 uM relative to control; type: functional; conditions: read-out: GI
SN12C = assay: Growth inhibition of human SN12C cells at 10 uM relative to control; type: functional; conditions: read-out: GI
TK-10 = assay: Growth inhibition of human TK-10 cells at 10 uM relative to control; type: functional; conditions: read-out: GI
UO-31 = assay: Growth inhibition of human UO-31 cells at 10 uM relative to control; type: functional; conditions: read-out: GI
PC-3 = assay: Growth inhibition of human PC-3 cells at 10 uM relative to control; type: functional; conditions: read-out: GI
DU-145 = assay: Growth inhibition of human DU-145 cells at 10 uM relative to control; type: functional; conditions: read-out: GI
MCF7 = assay: Growth inhibition of human MCF7 cells at 10 uM relative to control; type: functional; conditions: read-out: GI
MDA-MB-231 = assay: Growth inhibition of human MDA-MB-231 cells at 10 uM relative to control; type: functional; conditions: read-out: GI
Hs-578T = assay: Growth inhibition of human Hs-578T cells at 10 uM relative to control; type: functional; conditions: read-out: GI
BT-549 = assay: Growth inhibition of human BT-549 cells at 10 uM relative to control; type: functional; conditions: read-out: GI
DNA = assay: Displacement of methyl green from DNA (unknown origin) assessed as DNA intercalation after 24 hrs by colorimetric assay; type: nucleic-acid assay

Question: Which inhibition of growth at 10 µM (LOX IMVI) does the source give for `C1=CN2C(=NC(/C=C/c3cccs3)=CC2c2cccs2)S1` (centres undefined) here?
Answer: < 10%

Question: What about the inhibition of growth at 10 µM (MDA-MB-468) of the same compound?
Answer: < 10%

Question: What about the inhibition of growth at 10 µM (T47D) of the same compound?
Answer: < 10%

Question: What about the inhibition of growth at 10 µM (CCRF-CEM) of the same compound?
Answer: < 10%

Question: What about the inhibition of growth at 10 µM (HL-60(TB)) of the same compound?
Answer: < 10%

Question: And the inhibition of growth at 10 µM (K562)?
Answer: < 10%

Question: And the inhibition of growth at 10 µM (MOLT-4)?
Answer: < 10%

Question: And the inhibition of growth at 10 µM (RPMI-8226)?
Answer: < 10%

Question: What about the inhibition of growth at 10 µM (SR) of the same compound?
Answer: < 10%

Question: What about the inhibition of growth at 10 µM (A549) of the same compound?
Answer: < 10%

Question: What about the inhibition of growth at 10 µM (HOP-62) of the same compound?
Answer: < 10%

Question: What about the inhibition of growth at 10 µM (HOP-92) of the same compound?
Answer: < 10%

Question: And the inhibition of growth at 10 µM (NCI-H226)?
Answer: < 10%

Question: And the inhibition of growth at 10 µM (NCI-H23)?
Answer: < 10%

Question: And the inhibition of growth at 10 µM (NCI-H322M)?
Answer: < 10%

Question: What about the inhibition of growth at 10 µM (NCI-H460) of the same compound?
Answer: < 10%

Question: And the inhibition of growth at 10 µM (NCI-H522)?
Answer: < 10%

Question: What about the inhibition of growth at 10 µM (SW-620) of the same compound?
Answer: < 10%

Question: And the inhibition of growth at 10 µM (COLO 205)?
Answer: < 10%

Question: What about the inhibition of growth at 10 µM (HCC 2998) of the same compound?
Answer: < 10%

Question: And the inhibition of growth at 10 µM (HCT-116)?
Answer: < 10%

Question: And the inhibition of growth at 10 µM (HCT-15)?
Answer: < 10%

Question: And the inhibition of growth at 10 µM (HT-29)?
Answer: < 10%

Question: What about the inhibition of growth at 10 µM (KM12) of the same compound?
Answer: < 10%

Question: And the inhibition of growth at 10 µM (SF-268)?
Answer: < 10%

Question: And the inhibition of growth at 10 µM (SF-295)?
Answer: < 10%

Question: And the inhibition of growth at 10 µM (SF-539)?
Answer: < 10%

Question: What about the inhibition of growth at 10 µM (SNB-19) of the same compound?
Answer: < 10%

Question: What about the inhibition of growth at 10 µM (SNB-75) of the same compound?
Answer: 12.3%

Question: What about the inhibition of growth at 10 µM (U-251) of the same compound?
Answer: < 10%

Question: And the inhibition of growth at 10 µM (Malme-3M)?
Answer: < 10%

Question: And the inhibition of growth at 10 µM (M14)?
Answer: < 10%

Question: What about the inhibition of growth at 10 µM (MDA-MB-435) of the same compound?
Answer: < 10%

Question: And the inhibition of growth at 10 µM (SK-MEL-2)?
Answer: < 10%

Question: What about the inhibition of growth at 10 µM (SK-MEL-28) of the same compound?
Answer: < 10%

Question: What about the inhibition of growth at 10 µM (SK-MEL-5) of the same compound?
Answer: < 10%

Question: What about the inhibition of growth at 10 µM (UACC-257) of the same compound?
Answer: < 10%

Question: What about the inhibition of growth at 10 µM (UACC-62) of the same compound?
Answer: < 10%

Question: What about the inhibition of growth at 10 µM (IGROV-1) of the same compound?
Answer: < 10%

Question: And the inhibition of growth at 10 µM (OVCAR-4)?
Answer: < 10%

Question: What about the inhibition of growth at 10 µM (OVCAR-5) of the same compound?
Answer: < 10%

Question: And the inhibition of growth at 10 µM (OVCAR-8)?
Answer: < 10%

Question: And the inhibition of growth at 10 µM (NCI/ADR-RES)?
Answer: < 10%

Question: And the inhibition of growth at 10 µM (SK-OV-3)?
Answer: < 10%

Question: And the inhibition of growth at 10 µM (786-0)?
Answer: < 10%

Question: And the inhibition of growth at 10 µM (A498)?
Answer: < 10%

Question: And the inhibition of growth at 10 µM (ACHN)?
Answer: < 10%

Question: What about the inhibition of growth at 10 µM (CAKI-1) of the same compound?
Answer: < 10%

Question: What about the inhibition of growth at 10 µM (RXF 393) of the same compound?
Answer: < 10%

Question: And the inhibition of growth at 10 µM (SN12C)?
Answer: < 10%

Question: And the inhibition of growth at 10 µM (TK-10)?
Answer: < 10%

Question: And the inhibition of growth at 10 µM (UO-31)?
Answer: < 10%

Question: What about the inhibition of growth at 10 µM (PC-3) of the same compound?
Answer: < 10%

Question: What about the inhibition of growth at 10 µM (DU-145) of the same compound?
Answer: < 10%

Question: What about the inhibition of growth at 10 µM (MCF7) of the same compound?
Answer: < 10%

Question: What about the inhibition of growth at 10 µM (MDA-MB-231) of the same compound?
Answer: < 10%

Question: What about the inhibition of growth at 10 µM (Hs-578T) of the same compound?
Answer: < 10%

Question: What about the inhibition of growth at 10 µM (BT-549) of the same compound?
Answer: < 10%

Question: What about the IC50 (DNA) of the same compound?
Answer: 33.67 µg/mL (≈ 103 µM)

Reference: ChEMBL document CHEMBL4665869, “New thiazolopyrimidine as anticancer agents: Synthesis, biological evaluation, DNA binding, molecular modeling and ADMET study” (Bioorg Med Chem Lett, 2020)
